In patent US7166744B2, “Retinoid derivatives and methods for producing said compounds and anti-cancer pharmaceutical composition comprising said compounds” (Chebigen Co., Ltd., priority 2001, dated 2007):
“Also recorded” adds a separate entry of the source.

Experiments:
Assay type in all cases: cell-based
[1] = biological target: T1, RARβ (Homo sapiens, UniProt P10826); assay: CAT reporter assay, RARβ; details: 1 μM, control = 1.0; for expression level of CAT enzyme, RARβ −: column '−'
T1 construct: expressed in transfected cells
T1 sequence (P10826 1-455): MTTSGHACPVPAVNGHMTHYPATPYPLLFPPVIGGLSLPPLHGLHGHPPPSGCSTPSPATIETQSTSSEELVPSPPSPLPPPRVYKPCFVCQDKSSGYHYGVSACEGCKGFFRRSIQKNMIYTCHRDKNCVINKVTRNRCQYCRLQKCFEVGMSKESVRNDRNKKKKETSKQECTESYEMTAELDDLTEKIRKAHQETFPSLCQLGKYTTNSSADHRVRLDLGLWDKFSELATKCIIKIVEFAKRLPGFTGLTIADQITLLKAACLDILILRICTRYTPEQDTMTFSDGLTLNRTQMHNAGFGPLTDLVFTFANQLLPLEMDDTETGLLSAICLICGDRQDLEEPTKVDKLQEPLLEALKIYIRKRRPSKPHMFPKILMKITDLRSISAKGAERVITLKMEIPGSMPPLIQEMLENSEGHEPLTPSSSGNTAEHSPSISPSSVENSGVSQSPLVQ
Description: In order to confirm the effect of KCBG60 according to the present invention on retinoid receptor activity, cells were cotransfected with expression vectors of receptor subfamilies and reporter genes. As the reporter gene, chloramphenicol acetyltransferase (CAT) with a transcription control site reactive to respective receptors was used.

[2] = test system: PLCPRF5 liver cancer cells; assay: MTT proliferation assay, PLCPRF5
Protocol: The effects of test compounds on proliferation of various cancer cells was examined by 3-(4,5-dimethylthiazol-2-yl)-2,5-diphenyltetrazolium bromide (MTT, Sigma) assay in a dose dependent manner. In the MTT assay, colon, liver, cervix, ovary, and breast cancer cell lines were treated with test compounds at various concentrations. Living cancer cells reduce MTT to dark blue MTT formazan that would be measured by absorbance.
Colon cancer cells, HCT116, DLD-1 and HT29, cervix cancer cells, HeLa and CaSki, ovary cancer cells, SKOV-3, 2774 and OVCAR-3, liver cancer cells, SK-Hep-1, PLCPRF5 and HepG2, and breast cancer cells, ZR75-1 and MDA-MB 231 were seeded at an initial density of 3000 cells per well in 96-well plates. After attachment of cells to the walls of the wells, the medium containing fresh retinoid was treated with various concentrations (0.5 μM, 1 μM, 2.5 μM, 5 μM, 10 μM) for 48 hours. 50 μl of MTT solution (2 mg/ml in PBS) was added to cell culture media. The reaction micture was incubated at 37° C. in a 5% CO2 atmosphere for 4 hours. The supernatant was removed and 150 μl of DMSO was added. The optical density was measured spectrophotometrically at 550 nm. […] For other retinoid derivatives according to the present invention, absorbances were measured by this procedure and IC50 values, concentrations required for 50% growth inhibition, were determined.

[3] = test system: HCT116 colon cancer cells; assay: DNA fragmentation assay (agarose gel), HCT116; details: for fragmentation of chromosomal DNA (agarose gel): Experimental Example 8, cells treated as above; for DNA ladder (DNA fragmentation): HCT116, 2.5, 5.0, 10 μM, 48 hours
Protocol: After treated with each retinoid derivative at various concentrations (2.5, 5.0, 10 μM) for 48 hours, HCT116 or MCF-7 cells were poured in 1 mL of PBS and centrifuged at a rate of 13,000 rpm at 4° C. for 1 min. The resulting cell pellets were resuspended in 700 μl of lysis buffer (500 mM Tris, 100 mM EDTA, 0.5% SDS) containing 17.5 μl of proteinase K (20 mg/ml), and incubated on 55° C. water bath for 3 hours. The lysates were mixed with 700 μl of phenol solution while slowly stirring and centrifuged at 12,000 rpm for 5 min. The supernatants were separated and extracted with phenol once more. The supernatants were mixed with 600 μl of 100% ethanol and 60 μl of 3M NaOAc (pH 7.0) and left at −20° C. for 2 hours. The supernatants were removed by centrifugation at 12,000 rpm for 10 min to obtain pellets. After 70% ethanol washing and drying, DNA pellet was resuspended in 100 μl of TE (Tris-EDTA) buffer and treated with RNase A. The obtained samples were electrophoresed for 2 hours at 75 V on 1.8% agarose gels.
In order to confirm the above results, DNA was separated from the cells treated as above and examined for DNA fragmentation by agarose gel electrophoresis (FIG. 13).

[4] = test system: AP-1 (c-Jun); assay: AP-1 CAT reporter assay (c-Jun cotransfection); details: 1 μM; for AP-1 reporter CAT expression, −c-Jun/−RARα: control = 1.0; for AP-1 reporter CAT expression, +c-Jun/+RARα / AP-1 reporter CAT expression, +c-Jun/−RARα: control = 5.0; for suppression of AP-1 activity: Experimental Example 5; for repression of AP-1 activity: Experimental Example 10, text
Description: As the reporter gene, the CAT enzyme gene with a site recognizing AP-1 of collagenase was used.

[5] = test system: MMP-1 mRNA expression; assay: RT-PCR of MMP-1 mRNA in HCT116; details: HCT116, 1 μM; for inhibition of MMP-1 mRNA expression: 36 hours
Protocol: Previously, it was shown that the synthetic retinoid derivatives inhibit the transcriptional activity of AP-1. Also, it is well known that MMP (matrix metalloproteinase), a main target gene of AP-1 is involved in metastasis of cancer cells. Therefore, the inhibitive effects of the retinoid derivatives on metastasis of cancer was examined by RT-PCR analysis. Colon cancer HCT116 cells were treated with 1 μM retinoid for 36 hours. RNA was isolated from the cells and mRNA expression levels of MMP-1, -2 and -3 were analyzed by RT-PCR. […] As the control, GAPDH was used and it was confirmed that its expression was not affected by retinoid. Meanwhile, the expression level of MMP-3 was affected weakly by KCBG40, intermediately by KCBG41 but strongly by KCBG10 (FIG. 9).
RNA was isolated from the cells and mRNA expression levels of MMP-1, -2 and -3 were analyzed by RT-PCR (FIG. 14).

[6] = test system: HCT116 colon cancer cells; assay: DAPI staining of nuclei, HCT116; details: for nuclear condensation and fragmentation (DAPI): HCT116, 5 μM, 36 h; for nuclear condensation (DAPI): HCT116, Experimental Example 8
Protocol: By DAPI (4,6-diamidino-2-phenylindole) staining assay for staining DNA in cellular nucleus, nuclear condensation and fragmentation, characteristic features of apoptosis, were observed. […] In FIG. 4, the control represents non-treated cells. The sub-G1 DNA contents of colon cancer HTC116 cells and breast cancer MCF-7 cells were measured by FACS (Fluorescence-Activated Cell Sorter) assay to quantify the apoptosis (FIG. 5). Finally, in order to further characterize the apoptosis observed in retinoid derivative-treated cells, the cleavage of apoptosis-related proteins, including PARP (poly(ADP-ribose)polymerase) and CPP32 (caspase-3) by Western blotting. […] PARP cleavage occurred in a time-dependent manner, in parallel with the induction of apoptosis (FIG. 6B). C in FIG. 6 represents the result of Western blotting of non-treated cells.
Meanwhile, HPR which is a precursor during the synthesis process of KCBG60 is known to induce apoptosis. Considering that the cells aggregated into small spherical mass upon treatment with KCBG60, KCBG60 is expected to induce apoptosis. In order to confirm apoptosis induced by KCBG60 once again, KCBG60-treated HCT116 cells were stained with DAPI and observed for nuclear condensation, an indicative of apoptosis (FIG. 12).

CC1=C(/C=C/C(C)=C/C=C/C(C)=C/C(=O)O)C(C)(C)CCC1 [ATRA, All-trans-retinoic acid, reference compound]
expression level of CAT enzyme, RARβ + [1]: 65.2
expression level of CAT enzyme, RARβ − [1]: 17.3
IC50 ([2]; Homo sapiens, PLC-PRF-5, 48 hours): > 500 µM
fragmentation of chromosomal DNA (agarose gel) [3]: DNA ladder caused by fragmentation of chromosomal DNA was detected
AP-1 reporter CAT expression, −c-Jun/−RARα [4]: 0.6
AP-1 reporter CAT expression, +c-Jun/+RARα [4]: 2.0
AP-1 reporter CAT expression, +c-Jun/−RARα [4]: 3.5

CCCC(=O)Nc1cc(NC(=O)/C=C(C)/C=C/C=C(C)/C=C/C2=C(C)CCCC2(C)C)ccc1O [KCBG41, (2E,4E,6E,8E)-[3,7-dimethyl-9-(2,6,6-trimethylcyclohex-1-enyl)-nona-2,4,6,8-tetraenoylamino]-(3-butyrylamino-4-hydroxy)phenylamide]
DNA ladder (DNA fragmentation) [3]: DNA band of the ladder shape caused by DNA fragmentation was well detected; also recorded: at a similar concentration showed DNA fragmentation
suppression of AP-1 activity [4]: ~50%
inhibition of MMP-1 mRNA expression [5]: strongly
nuclear condensation and fragmentation (DAPI) [6]: largely showed nuclear fragmentation

CCCC(=O)Oc1ccc(NC(=O)/C=C(C)/C=C/C=C(C)/C=C/C2=C(C)CCCC2(C)C)cc1 [KCBG60]
expression level of CAT enzyme, RARβ + [1]: 1.0
expression level of CAT enzyme, RARβ − [1]: 0.8
fragmentation of chromosomal DNA (agarose gel) [3]: DNA ladder caused by fragmentation of chromosomal DNA was detected
repression of AP-1 activity [4]: about 50%
AP-1 reporter CAT expression, −c-Jun/−RARα [4]: 0.6
AP-1 reporter CAT expression, +c-Jun/+RARα [4]: 2.4
AP-1 reporter CAT expression, +c-Jun/−RARα [4]: 3.6
MMP-1 mRNA reduction compared to ATRA and phenyl butylate ([5]; 24 hours): two times increased
reduction of MMP-1 mRNA level ([5]; 24 hours): about 50%
nuclear condensation (DAPI) [6]: showed small spots, indicating nuclear condensation

CCCC(=O)Oc1cc(O)ccc1NC(=O)/C=C(C)/C=C/C=C(C)/C=C/C1=C(C)CCCC1(C)C [KCBG10, 2.2-[(2E,4E,6E,8E)-3,7-Dimethyl-9-(2,6,6-trimethylcyclohex-1-enyl)-nona-2,4,6,8-tetraenoylamino]-5-hydroxyphenylbutanoate]
IC50 ([2]; 48 hours): 12 µM
DNA ladder (DNA fragmentation) [3]: DNA band of the ladder shape caused by DNA fragmentation was well detected
suppression of AP-1 activity [4]: ~50%
inhibition of MMP-1 mRNA expression [5]: weakly
nuclear condensation and fragmentation (DAPI) [6]: largely showed nuclear fragmentation

phenyl butylate
expression level of CAT enzyme, RARβ + [1]: 0.9
expression level of CAT enzyme, RARβ − [1]: 0.7
fragmentation of chromosomal DNA (agarose gel) [3]: did not induce any fragmentation of chromosomal DNA
repression of AP-1 activity [4]: did not affect
AP-1 reporter CAT expression, −c-Jun/−RARα [4]: 1.0
AP-1 reporter CAT expression, +c-Jun/+RARα [4]: 5.3
AP-1 reporter CAT expression, +c-Jun/−RARα [4]: 4.7
nuclear condensation (DAPI) [6]: nuclei were observed normal

CC1=C(/C=C/C(C)=C/C=C/C(C)=C/C(=O)Nc2ccc(O)cc2)C(C)(C)CCC1 [HPR, (2E,4E,6E,8E)-[3,7-dimethyl-9-(2,6,6-trimethylcyclohex-1-enyl)-nona-2,4,6,8-tetraenoylamino]-4-hydroxyphenylamide]
expression level of CAT enzyme, RARβ + [1]: 25.3
expression level of CAT enzyme, RARβ − [1]: 9.1
IC50 ([2]; 48 hours): 20 µM
DNA ladder (DNA fragmentation) [3]: did not show any DNA ladder
AP-1 reporter CAT expression, −c-Jun/−RARα [4]: 0.7
AP-1 reporter CAT expression, +c-Jun/+RARα [4]: 2.2
AP-1 reporter CAT expression, +c-Jun/−RARα [4]: 3.7
inhibition of MMP-1 mRNA expression [5]: affected very little
nuclear condensation and fragmentation (DAPI) [6]: largely showed nuclear fragmentation
